Reference: US10780101B2, “Amide derivatives of squalamine for the treatment of infections” (VIRBAC, priority 2016, dated 2020)
≈ marks a conversion by molar mass, not a printed value.

Columns and labels:
[1] = test system: S. aureus Human ATCC 25923; test: MIC determination, S. aureus human ATCC 25923; format: cell-based; conditions: Staphylococcus aureus, ATCC25923; Gram-positive; Mueller-Hinton medium, 24 h at 37° C.
Outline: (§1)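 Broth microdilution in Mueller-Hinton medium, inoculum at OD 0.01, compounds (5 mg/mL stock in DMSO/methanol 50/50) serially diluted twofold. Plates incubated 24 h at 37° C. under humid atmosphere, read at OD 620 nm for MIC; duplicates.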

[2] = test system: S. aureus Animal (340); test: MIC determination, S. aureus animal (340); format: cell-based; conditions: Staphylococcus aureus; Gram-positive; Mueller-Hinton medium, 24 h at 37° C.
Outline: as §1

[3] = test system: S. intermedius Animal (1051997); test: MIC determination, S. intermedius animal (1051997); format: cell-based; conditions: Staphylococcus intermedius; Gram-positive; Mueller-Hinton medium, 24 h at 37° C.
Outline: as §1

[4] = test system: E. faecalis Human ATCC 29212; test: MIC determination, E. faecalis human ATCC 29212; format: cell-based; conditions: Enterococcus faecalis, ATCC29212; Gram-positive; Mueller-Hinton medium, 24 h at 37° C.
Outline: as §1

[5] = test system: E. coli Human ATCC 28922; test: MIC determination, E. coli human ATCC 28922; format: cell-based; conditions: Escherichia coli, ATCC28922; Gram-negative; Mueller-Hinton medium, 24 h at 37° C.
Outline: as §1

[6] = test system: E. coli Animal (1956); test: MIC determination, E. coli animal (1956); format: cell-based; conditions: Escherichia coli; Gram-negative; Mueller-Hinton medium, 24 h at 37° C.
Outline: as §1

[7] = test system: P. aeruginosa Animal (1051575); test: MIC determination, P. aeruginosa animal (1051575); format: cell-based; conditions: Pseudomonas aeruginosa; Gram-negative; Mueller-Hinton medium, 24 h at 37° C.
Outline: as §1

[8] = test system: P. aeruginosa (1051575); test: Potentiation of doxycycline activity (combination MIC); format: cell-based, Pseudomonas aeruginosa; conditions: for MIC - P. aeruginosa (1051575): content of compound of formula (I) to restore the doxycycline activity (at 2 μg/mL): in presence of doxycycline 2 μg/mL, 24 hours at 37° C.; for synergism when administered with doxycycline: doxycycline at 2 μg/mL
[9] = test system: P. aeruginosa (1051575); test: Potentiation of ampicillin activity (combination MIC); format: cell-based, Pseudomonas aeruginosa; conditions: ampicillin 4 μg/mL; concentration of compound required to restore antibiotic activity
Experimental: (§2) This method requires the use of a 96-well plate: 100 μL of a liquid culture medium are placed in each well and then seeded with the microbial suspension prepared previously. The required volume to be seeded is calculated for an OD of 0.01, which corresponds to about 5×10^6 bacteria in each well. In this plate, the first line corresponds to a negative control (200 μL of sterile culture medium in each well), the second line corresponds to a positive control (100 μL of sterile culture medium+100 μL of the bacterial suspension), and the third line contains 192 μL of culture medium; 8 μL of compound of formula (I) to be tested are placed in each well. Thereafter, a cascade dilution is performed from this line. […] 92 μL of bacterial suspension are then added to lines 3 to 8. The results are read (the determination of the MIC (2 μg/mL of doxycycline) in the presence of X g/mL of compound of formula (I)) after 24 hours of incubation at 37° C. under a humid atmosphere. After 24 hours of incubation at 37° C., 40 μL of nitro tetrazolium iodide are added to each well to reveal the presence of live bacteria by staining the medium pink.
(§3) The procedure is identical to that indicated in Example 5 above. […]
(§4) The results are given in table V. They indicate the concentration of compound of formula (I) required to be able to restore the activity of the antibiotic under consideration.

[10] = test system: P. aeruginosa (1051575); test: Potentiation of chloramphenicol activity (combination MIC); format: cell-based, Pseudomonas aeruginosa; conditions: concentration of compound required to restore antibiotic activity
Experimental: as §2, §3, §4

Compound | MIC [1] | MIC [2] | MIC [3] | MIC [4] | MIC [5] | MIC [6] | MIC [7] | MIC - P. aeruginosa (1051575): content of compound of formula (I) to restore the doxycycline activity (at 2 μg/mL) [8] | MIC P. aeruginosa (1051575) compound + ampicillin [9] | MIC P. aeruginosa (1051575) compound + chloramphenicol ([10]; chloramphenicol 2 μg/mL) | MIC P. aeruginosa (1051575) compound + chloramphenicol ([10]; chloramphenicol 4 μg/mL) | synergism when administered with doxycycline [8]
CC(C)NC(=O)CC[C@@H](C)[C@H]1CCC2C3C(C[C@H](O)[C@@]21C)[C@@]1(C)CC[C@H](NCCCNCCCN)CC1C[C@H]3O (stereo partly drawn) [(5), 3β-norspermidino-N-isopropylcholamide] | 8 µg/mL (≈ 14.2 µM) | 16 µg/mL (≈ 28.4 µM) | 4 µg/mL (≈ 7.11 µM) | 16 µg/mL (≈ 28.4 µM) | 16 µg/mL (≈ 28.4 µM) | 32 µg/mL (≈ 56.9 µM) | 64 µg/mL (≈ 114 µM) | 1 µg/mL | 64 µg/mL | 4 µg/mL | 2 µg/mL | –
CC(C)NC(=O)CC[C@@H](C)[C@H]1CCC2C3C(CC[C@@]21C)[C@@]1(C)CC[C@H](NCCCNCCCNCCCN)CC1C[C@H]3O (stereo partly drawn) [(7), 3β-norspermino-N-isopropylchenodeoxycholamide] | 4 µg/mL (≈ 6.62 µM) | 2 µg/mL (≈ 3.31 µM) | 1 µg/mL (≈ 1.66 µM) | 4 µg/mL (≈ 6.62 µM) | 15 µg/mL (≈ 24.8 µM) | 8 µg/mL (≈ 13.2 µM) | 15 µg/mL (≈ 24.8 µM) | 1 µg/mL | 15 µg/mL | – | 2 µg/mL | –
CC(C)NC(=O)CC[C@@H](C)[C@H]1CCC2C3C(CC[C@@]21C)[C@@]1(C)CC[C@H](NCCCNCCCN)CC1C[C@H]3O (stereo partly drawn) [(8), 3β-norspermidino-N-isopropylchenodeoxycholamide] | 6 µg/mL (≈ 11 µM) | 3 µg/mL (≈ 5.49 µM) | 1 µg/mL (≈ 1.83 µM) | 8 µg/mL (≈ 14.6 µM) | 14 µg/mL (≈ 25.6 µM) | 14 µg/mL (≈ 25.6 µM) | 27 µg/mL (≈ 49.4 µM) | 2 µg/mL | 27 µg/mL | – | 2 µg/mL | –
CC(C)NC(=O)CC[C@@H](C)[C@H]1CCC2C3C(CC[C@@]21C)[C@@]1(C)CC[C@H](NCCCNCCCN)CC1C[C@@H]3O (stereo partly drawn) [(15), 3β-norspermidino-N-isopropylursodeoxycholamide] | 28 µg/mL (≈ 51.2 µM) | 56 µg/mL (≈ 102 µM) | 7 µg/mL (≈ 12.8 µM) | 112 µg/mL (≈ 205 µM) | 56 µg/mL (≈ 102 µM) | 112 µg/mL (≈ 205 µM) | 112 µg/mL (≈ 205 µM) | 1 µg/mL | 110 µg/mL | 7 µg/mL | 2 µg/mL | –
CC(C)NC(=O)CC[C@@H](C)[C@H]1CCC2C3CCC4C[C@@H](NCCCN(C)CCCN)CC[C@]4(C)C3C[C@H](O)[C@@]21C (some centres unmarked) [(25)] | 7 µg/mL (≈ 12.5 µM) | 14 µg/mL (≈ 25 µM) | 2 µg/mL (≈ 3.57 µM) | 14 µg/mL (≈ 25 µM) | 14 µg/mL (≈ 25 µM) | 14 µg/mL (≈ 25 µM) | 28 µg/mL (≈ 49.9 µM) | 2 µg/mL | 56 µg/mL | – | 2 µg/mL | noteworthy synergism
CC(C)NC(=O)CC[C@@H](C)[C@H]1CCC2C3C(CC[C@@]21C)[C@@]1(C)CC[C@H](NCCCN(C)CCCN)CC1C[C@H]3O (stereo partly drawn) [(27), 3β-(bis(3-aminopropyl)methylamine)-N-isopropylchenodeoxycholamide] | 8 µg/mL (≈ 14.3 µM) | 8 µg/mL (≈ 14.3 µM) | 4 µg/mL (≈ 7.13 µM) | 16 µg/mL (≈ 28.5 µM) | 16 µg/mL (≈ 28.5 µM) | 32 µg/mL (≈ 57 µM) | 128 µg/mL (≈ 228 µM) | 2 µg/mL | 64 µg/mL | 4 µg/mL | 1 µg/mL | –
CC(C)NC(=O)CC[C@@H](C)[C@H]1CCC2C3CCC4C[C@@H](NCCCNCCCN)CC[C@]4(C)C3C[C@H](O)[C@@]21C (stereo partly drawn) [Compound (2), 3β-norspermidino-N-isopropyldeoxycholamide] | 4 µg/mL (≈ 7.31 µM) | 2 µg/mL (≈ 3.66 µM) | 1 µg/mL (≈ 1.83 µM) | 14 µg/mL (≈ 25.6 µM) | 14 µg/mL (≈ 25.6 µM) | 14 µg/mL (≈ 25.6 µM) | 14 µg/mL (≈ 25.6 µM) | 0.9 µg/mL | 28 µg/mL | 0.9 µg/mL | 0.9 µg/mL | noteworthy synergism
CC(C)NC(=O)CC[C@@H](C)[C@H]1CCC2C3C(CC[C@@]21C)[C@@]1(C)CC[C@H](NCCCNCCCCNCCCN)CC1C[C@@H]3O (stereo partly drawn) [Compound (35), 3β-spermino-N-isopropylursodeoxycholamide] | 16 µg/mL (≈ 25.9 µM) | 16 µg/mL (≈ 25.9 µM) | 8 µg/mL (≈ 12.9 µM) | 64 µg/mL (≈ 104 µM) | 64 µg/mL (≈ 104 µM) | 64 µg/mL (≈ 104 µM) | 64 µg/mL (≈ 104 µM) | 2 µg/mL | 64 µg/mL | – | 2 µg/mL | –
